This is an account of results in US10005774B2, “Syk inhibitors” (Gilead Sciences, Inc., priority 2013, dated 2018).

The first assay has as its target Syk (Homo sapiens, UniProt P43405). In words: High Throughput Syk Biochemical Assay (KinEASE TR-FRET). To be noted: TABLE D, 20 μM ATP, 1 μM biotinylated peptide, 0.015 nM Syk, 30 min at room temperature, read-out: IC50. The method, boiled down:
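Compounds in DMSO dilution series were tested against Syk, which phosphorylates an XL665-tagged peptide. The phosphoproduct was bound by Eu-labelled phosphotyrosine antibody in a two-step endpoint format.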
(Time-resolved FRET reads energy transfer from a long-lived donor to a nearby acceptor.)
As a reminder, the IC50 is the midpoint of a concentration-inhibition curve. Consider `C[C@@H](Oc1nc(-c2ccc(S(C)(=O)=O)cc2)cc2ncn(C)c12)[C@H]1CNC(=O)C1` [(R)-4-((R)-1-(3-methyl-6-(4-(methylsulfonyl)phenyl)-3H-imidazo[4,5-c]pyridin-4-yloxy)ethyl)pyrrolidin-2-one], for which the 50% inhibitory concentration (IC50) came to 27.7 nM.
The same measure, in the same setting: next, `C[C@@H](Oc1cc(-c2cnn(C(C)(C)C)c2)cc2ncsc12)[C@H]1CNC(=O)C1` (stereo in doubt) [(R)-4-((R)-1-((5-(1-(tert-butyl)-1H-pyrazol-4-yl)benzo[d]thiazol-7-yl)oxy)ethyl)pyrrolidin-2-one]: 0.894 nM; `C[C@@H](Oc1cc(-c2cccc3scnc23)cc2ncsc12)[C@H]1CNC(=O)C1` [(R)-4-((R)-1-([4,5′-bibenzo[d]thiazol]-7′-yloxy)ethyl)pyrrolidin-2-one]: 105 nM.
Same read-out and setting: next, `COc1cc(-c2cc3ncn(C)c3c(O[C@H](C)[C@H]3CNC(=O)C3)n2)ccc1F` [(R)-4-((R)-1-(6-(4-fluoro-3-methoxyphenyl)-3-methyl-3H-imidazo[4,5-c]pyridin-4-yloxy)ethyl)pyrrolidin-2-one]: 39.5 nM; `Cc1c(-c2cc3ncn(C)c3c(O[C@H](C)[C@H]3CNC(=O)C3)n2)cnn1C` [(R)-4-((R)-1-(6-(1,5-dimethyl-1H-pyrazol-4-yl)-3-methyl-3H-imidazo[4,5-c]pyridin-4-yloxy)ethyl)pyrrolidin-2-one]: 41.7 nM; `CC(C)n1cc(-c2cc3ncn(C)c3c(O[C@H](C)[C@H]3CNC(=O)C3)n2)cn1` [(R)-4-((R)-1-(6-(1-isopropyl-1H-pyrazol-4-yl)-3-methyl-3H-imidazo[4,5-c]pyridin-4-yloxy)ethyl)pyrrolidin-2-one]: 8.65 nM.
Same read-out and setting: next, `C[C@@H](Oc1cc(-c2cnn(CC(F)F)c2)cn2nccc12)[C@H]1CNC(=O)C1` [(R)-4-((R)-1-((6-(1-(2,2-difluoroethyl)-1H-pyrazol-4-yl)pyrazolo[1,5-a]pyridin-4-yl)oxy)ethyl)pyrrolidin-2-one]: 10.2 nM.
Take `Cc1nc2cc(-c3cnn(C(C)(C)C)c3)cc(O[C@H](C)[C@H]3CNC(=O)C3)c2s1` (stereo in doubt) [(R)-4-((R)-1-((5-(1-(tert-butyl)-1H-pyrazol-4-yl)-2-methylbenzo[d]thiazol-7-yl)oxy)ethyl)pyrrolidin-2-one]: the IC50 came out at 22.2 nM.
Still for that read-out and setting: the value for `C[C@@H](Oc1nc(-c2cnn(C3COC3)c2)cc2ncn(C)c12)[C@H]1CNC(=O)C1` [(R)-4-((R)-1-(3-methyl-6-(1-(oxetan-3-yl)-1H-pyrazol-4-yl)-3H-imidazo[4,5-c]pyridin-4-yloxy)ethyl)pyrrolidin-2-one] was 23.5 nM; that for `COc1ccc(-c2cc(O[C@H](C)[C@H]3CNC(=O)C3)c3scnc3c2)cc1OC` (stereo in doubt) [(R)-4-((R)-1-((5-(3,4-dimethoxyphenyl)benzo[d]thiazol-7-yl)oxy)ethyl)pyrrolidin-2-one] was 5 nM.

Still in this assay, the particulars now being: table 'ALL NEW COMPOUNDS IN 2014', 20 μM ATP, 1 μM biotinylated peptide, 0.015 nM Syk, 30 min at room temperature, read-out: Syk IC50.
For `CCOc1ccc(-c2cc3ncn(C4CC4)c3c(O[C@H](C)[C@H]3CNC(=O)C3)n2)cc1OC` [(R)-4-((R)-1-((3-cyclopropyl-6-(4-ethoxy-3-methoxyphenyl)-3H-imidazo[4,5-c]pyridin-4-yl)oxy)ethyl)pyrrolidin-2-one], the IC50 came out at 2.46 nM.
On to `C[C@@H](Oc1cc(-c2ccn(C)n2)cc2ncn(C3CC3)c12)[C@H]1CNC(=O)C1` [(R)-4-((R)-1-((1-cyclopropyl-5-(1-methyl-1H-pyrazol-3-yl)-1H-benzo[d]imidazol-7-yl)oxy)ethyl)pyrrolidin-2-one], for which the IC50 is 10.6 nM.
The same measure, in the same setting: next, `C[C@@H](Oc1cc(-c2cccc(N)n2)cc2ncn(C3CC3)c12)[C@H]1CNC(=O)C1` [(R)-4-((R)-1-((5-(6-aminopyridin-2-yl)-1-cyclopropyl-1H-benzo[d]imidazol-7-yl)oxy)ethyl)pyrrolidin-2-one]: 8.43 nM; `C[C@@H](Oc1nc(-c2cnn(C(C)(C)CO)c2)cc2ncn(C3CC3)c12)[C@H]1CNC(=O)C1`: 3.43 nM.
On the same count and under the same terms, next, `C[C@@H](Oc1nc(-c2ccc3c(c2)N(C)C(=O)C32CN(C)C2)cc2ncn(C3CC3)c12)[C@H]1CNC(=O)C1` [6′-(3-cyclopropyl-4-((R)-1-((R)-5-oxopyrrolidin-3-yl)ethoxy)-3H-imidazo[4,5-c]pyridin-6-yl)-1,1′-dimethylspiro[azetidine-3,3′-indolin]-2′-one]: 7.55 nM; `C[C@@H](Oc1cc(-c2ccn(C(C)(C)C)n2)cc2ncn(C3CC3)c12)[C@H]1CNC(=O)C1` [(R)-4-((R)-1-((5-(1-(tert-butyl)-1H-pyrazol-3-yl)-1-cyclopropyl-1H-benzo[d]imidazol-7-yl)oxy)ethyl)pyrrolidin-2-one]: 5.01 nM; “(R)-4-((R)-1-((3-cyclopropyl-6-(3,4-dimethoxyphenyl)-3H-imidazo[4,5-c]pyridin-4-yl)oxy)ethyl)pyrrolidin-2-one”: 6.57 nM.
As to `C[C@@H](Oc1cc(-c2cnn(C)n2)cc2ncn(C3CC3)c12)[C@H]1CNC(=O)C1` [(R)-4-((R)-1-((1-cyclopropyl-5-(2-methyl-2H-1,2,3-triazol-4-yl)-1H-benzo[d]imidazol-7-yl)oxy)ethyl)pyrrolidin-2-one], the IC50 is 22.4 nM.
As for `C[C@@H](Oc1nc(-c2ccc3oc(=O)n(C)c3c2)cc2ncn(C3CC3)c12)[C@H]1CNC(=O)C1`, the half-maximal inhibitory concentration (IC50) turned out to be 14.4 nM.
Same read-out and setting: the value for `COc1cc(-c2cc3ncn(C4CC4)c3c(O[C@H](C)[C@H]3CNC(=O)C3)n2)cnc1OC` [(R)-4-((R)-1-((3-cyclopropyl-6-(5,6-dimethoxypyridin-3-yl)-3H-imidazo[4,5-c]pyridin-4-yl)oxy)ethyl)pyrrolidin-2-one] was 8.38 nM; that for `Cc1nnc(-c2cc(O[C@H](C)[C@H]3CNC(=O)C3)c3c(c2)ncn3C2CC2)s1` [(R)-4-((R)-1-((1-cyclopropyl-5-(5-methyl-1,3,4-thiadiazol-2-yl)-1H-benzo[d]imidazol-7-yl)oxy)ethyl)pyrrolidin-2-one] was 5.45 nM.
Still for that read-out and setting: the value for `C[C@@H](Oc1nc(-c2ccc(N3CC4CC(C3)N4)cc2)cc2ncn(C3CC3)c12)[C@H]1CNC(=O)C1` [(4R)-4-((1R)-1-((6-(4-(3,6-diazabicyclo[3.1.1]heptan-3-yl)phenyl)-3-cyclopropyl-3H-imidazo[4,5-c]pyridin-4-yl)oxy)ethyl)pyrrolidin-2-one] was 2.29 nM; that for `COc1cc(-c2cc(O[C@H](C)[C@H]3CNC(=O)C3)c3c(c2)ncn3C2CC2)ccc1OC(F)F` [(R)-4-((R)-1-((1-cyclopropyl-5-(4-(difluoromethoxy)-3-methoxyphenyl)-1H-benzo[d]imidazol-7-yl)oxy)ethyl)pyrrolidin-2-one] was 23.1 nM; that for `C[C@@H](Oc1nc(-c2ccc(N3CCN(C4COC4)CC3)nc2)cc2ncn(C)c12)[C@H]1CNC(=O)C1` [(R)-4-((R)-1-((3-methyl-6-(6-(4-(oxetan-3-yl)piperazin-1-yl)pyridin-3-yl)-3H-imidazo[4,5-c]pyridin-4-yl)oxy)ethyl)pyrrolidin-2-one] was 12.4 nM.
The same measure, in the same setting: the value for `C[C@@H](Oc1nc(-c2ccc(N3CCN(C4COC4)CC3)cc2F)cc2ncn(C3CC3)c12)[C@H]1CNC(=O)C1` [(R)-4-((R)-1-((3-cyclopropyl-6-(2-fluoro-4-(4-(oxetan-3-yl)piperazin-1-yl)phenyl)-3H-imidazo[4,5-c]pyridin-4-yl)oxy)ethyl)pyrrolidin-2-one] was 10.1 nM.
